Each structure is given as a SMILES string.

The assay deals with T1, hROMK (hKir1.1) (Homo sapiens, UniProt P48048).
T1 construct: expressed in transfected cells
T1 sequence (P48048 1-391): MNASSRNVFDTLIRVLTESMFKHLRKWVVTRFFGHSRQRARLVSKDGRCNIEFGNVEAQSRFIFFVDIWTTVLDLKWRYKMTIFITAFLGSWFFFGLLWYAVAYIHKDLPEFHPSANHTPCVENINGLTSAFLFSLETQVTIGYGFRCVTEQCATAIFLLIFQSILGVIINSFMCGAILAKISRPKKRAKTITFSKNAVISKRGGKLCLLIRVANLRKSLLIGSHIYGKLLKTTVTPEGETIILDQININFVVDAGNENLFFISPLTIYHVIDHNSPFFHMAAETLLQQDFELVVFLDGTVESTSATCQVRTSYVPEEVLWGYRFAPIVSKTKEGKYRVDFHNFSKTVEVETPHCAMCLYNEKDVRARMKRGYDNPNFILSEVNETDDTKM
In words: Thallium Flux Assay (ROMK channel functional thallium flux, FLIPR-Tetra). Type of assay: cell-based. The note with it: HEK293 cells stably expressing hROMK (hKir1.1); 30 min incubation with compound; HCl salt run where final product was an HCl salt. As to the method:
The following Thallium Flux Assay was performed on each of the final product compounds in the Examples. When the final product of an Example was an HCl salt, the salt was run in the Assay.
Cell Culture Conditions—HEK293 cells stably expressing hROMK (hKir1.1) were grown at 37° C. in a 10% CO2 humidified incubator in complete growth media: Dulbecco's Modified Eagle Medium supplemented with non-essential amino acids, Penicillin/Streptomycin/Glutamine, G418 and FBS. At >80% confluency, aspirate the media from the flask and rinse with 10 mL Calcium/Magnesium-free PBS. Add 5 mL of 1× trypsin (prepared in Ca/Mg Free PBS) to T-225 flask and return flask to 37° C./CO2 incubator for 2-3 minutes. To dislodge the cell, gently bang the side of the flask with your hand. Triturate the cells completely and then transfer the cells to 25 mL complete media. Centrifuge at 1,500 rpm for 6 min followed by resuspension in complete growth media and determine cell concentration. For typical re-seeding, 4E6 cells/T-225 flask will attain >80% confluency in 4 days. Under ideal growth conditions and appropriate tissue culture practices, this cell line is stable for 40-45 passages.
FluxOR Kit Components (Invitrogen F10017)
• FluxOR™ Reagent (Component A) • FluxOR™ Assay Buffer (Component B)—10× Concentrate • PowerLoad™ Concentrate (Component C)—100× Concentrate • Probenecid (Component D)—Lyophilized sample is kept at −20° C. Water soluble, 100× after solubilization in 1 mL water. Store at 4° C. • FluxOR™ Chloride-free Buffer (Component E)—5× Concentrate • Potassium sulfate (K2SO4) Concentrate (Component F)—125 mM in water. Store at 4° C. • Thallium sulfate (T12SO4) Concentrate (Component G)—50 mM in water. Store at 4° C. • DMSO (dimethyl sulfoxide, Component H)—1 mL (100%) Reagent Preparation: FluxOR Working Solutions • 1000× FluxOR™ Reagent: Reconstitute a vial of component A in 100 μl DMSO; Mix well; Store 10 μl aliquots at −20° C. • 1× FluxOR™ Assay Buffer: Dilute Component B 10-fold with water; Adjust pH to 7.4 with Hepes/NaOH; Filter and store at 4° C. • Probenecid/Assay Buffer: 100 mL of 1× FluxOR™ Assay Buffer; 1 mL of reconstituted component D; Store at 4° C. • Loading Buffer (per microplate): 10 μl 1000× FluxOR™ Reagent; 100 μl component C; 10 mL Probenecid/Assay Buffer • Compound Buffer (per microplate): 20 mL Probenecid/Assay Buffer; 0.3 mM ouabain (10 mM ouabain in water can be stored in amber bottle/aluminum foil at room temperature); Test compound • 1× FluxOR™ Chloride-Free Buffer: Prepare 1× working solution in water. Can be stored at room temperature • Stimulant Buffer (prepared at 5× final concentration in 1× FluxOR™ Chloride-Free Buffer): 7.5 mM Thallium sulfate and 0.75 mM Potassium sulfate (to give a final assay concentration of 3 mM Thallium/0.3 mM Potassium). Store at 4° C. when not in use.
Assay protocol—The ROMK channel functional thallium flux assay is performed in 384 wells, using the FLIPR-Tetra instrument. HEK-hKir1.1 cells are seeded in Poly-D-Lysine microplates and kept in a 37° C.-10% CO2 incubator overnight. On the day of the experiment, the growth media is replaced with the FluxOR™ reagent loading buffer and incubated, protected from light, at ambient temperature (23-25° C.) for 90 min. The loading buffer is replaced with assay buffer±test compound followed by 30 min incubation at ambient temperature, where the Thallium/Potassium stimulant is added to the microplate.
• 1. Seed HEK-hKir1.1 cells (50 μl at 20,000 cells/well) in 384-well PDL coated Microplates • 2. Allow cells to adhere overnight in humidified 37° C./10% CO2 incubator • 3. Completely remove cell growth media from microplate and replace with 25 μl loading buffer • 4. Incubate Microplate at room temperature, protected from light, for 90 min • 5. Remove loading buffer and replace with 25 μl 1× Assay Buffer±test compound. • 6. Incubate microplate at room temperature, protected from light, for 30 min • 7. […]
As a reminder, the IC50 is the concentration that gives 50% inhibition. Turning to `Cc1c(C(O)CN2CCC(O)(C(=O)Nc3ccc(C#N)cn3)CC2)ccc2c1COC2=O` (stereo in doubt) [Example 37, (R)-N-(5-cyanopyridin-2-yl)-4-hydroxy-1-(2-hydroxy-2-(4-methyl-1-oxo-1,3-dihydroisobenzofuran-5-yl)ethyl)piperidine-4-carboxamide], the IC50 worked out at 470 nM.
Regarding `COc1nsc(NC(=O)C2CCN(C[C@H](O)c3ccc4c(c3C)COC4=O)CC2)n1` [Example 1, (R)-1-(2-Hydroxy-2-(4-methyl-1-oxo-1,3-dihydroisobenzofuran-5-yl)ethyl)-N-(3-methoxy-1,2,4-thiadiazol-5-yl)piperidine-4-carboxamide], the IC50 was found to be 170 nM.
The same measure for `Cc1ccc(C#N)cc1NC(=O)C1CCN(CCc2ccc3c(c2C)COC3=O)CC1` [Example 2, N-(5-cyano-2-methylphenyl)-1-(2-(4-methyl-1-oxo-1,3-dihydroisobenzofuran-5-yl)ethyl)piperidine-4-carboxamide]: 460 nM.
The result for `Cc1c(CCN2CCC(C(=O)Nc3ccc(C#N)cc3)CC2)ccc2c1COC2=O` [Example 3, N-(4-cyanophenyl)-1-(2-(4-methyl-1-oxo-1,3-dihydroisobenzofuran-5-yl)ethyl)piperidine-4-carboxamide] reads 140 nM.
For the compound `Cc1c(CCN2CCC(C(=O)Nc3ccc(C#N)nc3)CC2)ccc2c1COC2=O` [Example 4, N-(6-cyanopyridin-3-yl)-1-(2-(4-methyl-1-oxo-1,3-dihydroisobenzofuran-5-yl)ethyl)piperidine-4-carboxamide], the IC50 came to 210 nM.
Regarding `Cc1c(CCN2CCC(C(=O)Nc3ccc(C#N)c(F)c3)CC2)ccc2c1COC2=O` [Example 5, N-(4-cyano-3-fluorophenyl)-1-(2-(4-methyl-1-oxo-1,3-dihydroisobenzofuran-5-yl)ethyl)piperidine-4-carboxamide], the IC50 was found to be 30 nM.
In the case of `Cc1c(CCN2CCC(C(=O)Nc3ccc(C#N)c4ccccc34)CC2)ccc2c1COC2=O` [Example 6, N-(4-cyanonaphthalen-1-yl)-1-(2-(4-methyl-1-oxo-1,3-dihydroisobenzofuran-5-yl)ethyl)piperidine-4-carboxamide], the 50% inhibitory concentration (IC50) worked out at 70 nM.
As to `Cc1nc(NC(=O)C2CCN(CCc3ccc4c(c3C)COC4=O)CC2)ccc1C#N` [Example 7, N-(5-cyano-6-methylpyridin-2-yl)-1-(2-(4-methyl-1-oxo-1,3-dihydroisobenzofuran-5-yl)ethyl)piperidine-4-carboxamide], the concentration for half-maximal inhibition (IC50) was 100 nM.
Regarding `Cc1cc(C#N)ccc1NC(=O)C1CCN(CCc2ccc3c(c2C)COC3=O)CC1` [Example 8, N-(4-cyano-2-methylphenyl)-1-(2-(4-methyl-1-oxo-1,3-dihydroisobenzofuran-5-yl)ethyl)piperidine-4-carboxamide], the IC50 amounted to 100 nM.
The same measure for `Cc1c(CCN2CCC(C(=O)Nc3cc(C#N)ccc3F)CC2)ccc2c1COC2=O` [Example 9, N-(5-cyano-2-fluorophenyl)-1-(2-(4-methyl-1-oxo-1,3-dihydroisobenzofuran-5-yl)ethyl)piperidine-4-carboxamide]: 250 nM; for `Cc1c(CCN2CCC(C(=O)Nc3ccc4c(c3)COC4=O)CC2)ccc2c1COC2=O` [Example 10, 1-(2-(4-methyl-1-oxo-1,3-dihydroisobenzofuran-5-yl)ethyl)-N-(1-oxo-1,3-dihydroisobenzofuran-5-yl)piperidine-4-carboxamide]: 10 nM.
The same measure for `Cc1c(CCN2CCC(C(=O)Nc3ccc4nonc4c3)CC2)ccc2c1COC2=O` [Example 11, N-(benzo[c][1,2,5]oxadiazol-5-yl)-1-(2-(4-methyl-1-oxo-1,3-dihydroisobenzofuran-5-yl)ethyl)piperidine-4-carboxamide]: 210 nM.
Regarding `CCOc1cc(NC(=O)C2CCN(CCc3ccc4c(c3)COC4=O)CC2)ccc1C#N` [Example 12, N-(4-cyano-3-ethoxyphenyl)-1-[2-(1-oxo-1,3-dihydro-2-benzofuran-5-yl)ethyl]piperidine-4-carboxamide], the IC50 was found to be 30 nM.
The result for `COc1cc(NC(=O)C2CCN(CCc3ccc4c(c3)COC4=O)CC2)ccc1C#N` [Example 13, N-(4-cyano-3-methoxyphenyl)-1-(2-(1-oxo-1,3-dihydroisobenzofuran-5-yl)ethyl)piperidine-4-carboxamide] reads 30 nM; that for `N#Cc1cc(F)c(NC(=O)C2CCN(CCc3ccc4c(c3)COC4=O)CC2)cc1F` [Example 14, N-(4-cyano-2,5-difluorophenyl)-1-(2-(1-oxo-1,3-dihydroisobenzofuran-5-yl)ethyl)piperidine-4-carboxamide], 140 nM.
The result for `N#Cc1ccc(NC(=O)C2CCN(CCc3ccc4c(c3)COC4=O)CC2)c(OC(F)(F)F)c1` [Example 15, N-(4-cyano-2-(trifluoromethoxy)phenyl)-1-(2-(1-oxo-1,3-dihydroisobenzofuran-5-yl)ethyl)piperidine-4-carboxamide] reads 180 nM; that for `N#Cc1cc(NC(=O)C2CCN(CCc3ccc4c(c3)COC4=O)CC2)ccc1Cl` [Example 16, N-(4-chloro-3-cyanophenyl)-1-(2-(1-oxo-1,3-dihydroisobenzofuran-5-yl)ethyl)piperidine-4-carboxamide], 260 nM; that for `N#Cc1cc(NC(=O)C2CCN(CCc3ccc4c(c3)COC4=O)CC2)ccc1F` [Example 17, N-(3-cyano-4-fluorophenyl)-1-(2-(1-oxo-1,3-dihydroisobenzofuran-5-yl)ethyl)piperidine-4-carboxamide], 410 nM.
Take `O=C1OCc2cc(CCN3CCC(C(=O)Nc4ccc5cn[nH]c5c4)CC3)ccc21` [Example 18, N-(1H-indazol-6-yl)-1-(2-(1-oxo-1,3-dihydroisobenzofuran-5-yl)ethyl)piperidine-4-carboxamide]: the IC50 was found to be 510 nM.
As for `O=C1OCc2cc(CCN3CCC(C(=O)Nc4ccc5[nH]nnc5c4)CC3)ccc21` [Example 19, N-(1H-benzo[d][1,2,3]triazol-5-yl)-1-(2-(1-oxo-1,3-dihydroisobenzofuran-5-yl)ethyl)piperidine-4-carboxamide], the IC50 stood at 440 nM.
`O=C1OCc2cc(CCN3CCC(C(=O)Nc4ccc5sncc5c4)CC3)ccc21` [Example 20, N-(benzo[d]isothiazol-5-yl)-1-(2-(1-oxo-1,3-dihydroisobenzofuran-5-yl)ethyl)piperidine-4-carboxamide]: the IC50 came out at 470 nM.
Turning to `N#Cc1cc(NC(=O)C2CCN(CCc3ccc4c(c3)COC4=O)CC2)n(-c2ccc(F)cc2)c1` [Example 21, N-(4-cyano-1-(4-fluorophenyl)-1H-pyrrol-2-yl)-1-(2-(1-oxo-1,3-dihydroisobenzofuran-5-yl)ethyl)piperidine-4-carboxamide], the half-maximal inhibitory concentration (IC50) was found to be 410 nM.

Source of the values: patent US9951052B2, “Inhibitors of the renal outer medullary potassium channel” (Merck Sharp & Dohme Corp., priority 2013, dated 2018).
